Results from ChEMBL document CHEMBL5291721, “A preclinical secondary pharmacology resource illuminates target-adverse drug reaction associations of marketed drugs” (Nat Commun, 2023).

How the values were obtained:
Adenosine receptor A1 = target: T1, Adenosine receptor A1 (Homo sapiens, UniProt P30542)
T1 sequence (P30542 whole entry): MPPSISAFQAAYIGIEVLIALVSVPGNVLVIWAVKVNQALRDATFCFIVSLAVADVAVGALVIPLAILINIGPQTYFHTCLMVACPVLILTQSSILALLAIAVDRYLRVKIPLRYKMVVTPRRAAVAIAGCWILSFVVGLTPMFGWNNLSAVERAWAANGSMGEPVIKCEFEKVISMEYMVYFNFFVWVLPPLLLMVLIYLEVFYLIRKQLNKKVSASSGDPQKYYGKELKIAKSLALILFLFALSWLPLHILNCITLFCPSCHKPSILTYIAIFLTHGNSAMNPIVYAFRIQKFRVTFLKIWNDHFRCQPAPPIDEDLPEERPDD

[1] = target: T2, Type-1 angiotensin II receptor (Homo sapiens, UniProt P30556)
T2 sequence (P30556 whole entry): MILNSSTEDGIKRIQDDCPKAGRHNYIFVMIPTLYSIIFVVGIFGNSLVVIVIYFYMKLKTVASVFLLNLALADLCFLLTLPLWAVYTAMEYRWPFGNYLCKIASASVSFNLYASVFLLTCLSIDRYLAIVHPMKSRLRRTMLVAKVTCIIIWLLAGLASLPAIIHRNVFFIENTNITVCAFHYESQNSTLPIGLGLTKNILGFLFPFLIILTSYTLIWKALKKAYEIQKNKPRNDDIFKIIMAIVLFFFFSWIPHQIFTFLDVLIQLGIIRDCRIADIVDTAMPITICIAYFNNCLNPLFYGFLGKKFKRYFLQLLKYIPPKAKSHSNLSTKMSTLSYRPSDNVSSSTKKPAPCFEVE

[2] = target: T3, Cholecystokinin receptor type A (Homo sapiens, UniProt P32238)
T3 sequence (P32238 whole entry): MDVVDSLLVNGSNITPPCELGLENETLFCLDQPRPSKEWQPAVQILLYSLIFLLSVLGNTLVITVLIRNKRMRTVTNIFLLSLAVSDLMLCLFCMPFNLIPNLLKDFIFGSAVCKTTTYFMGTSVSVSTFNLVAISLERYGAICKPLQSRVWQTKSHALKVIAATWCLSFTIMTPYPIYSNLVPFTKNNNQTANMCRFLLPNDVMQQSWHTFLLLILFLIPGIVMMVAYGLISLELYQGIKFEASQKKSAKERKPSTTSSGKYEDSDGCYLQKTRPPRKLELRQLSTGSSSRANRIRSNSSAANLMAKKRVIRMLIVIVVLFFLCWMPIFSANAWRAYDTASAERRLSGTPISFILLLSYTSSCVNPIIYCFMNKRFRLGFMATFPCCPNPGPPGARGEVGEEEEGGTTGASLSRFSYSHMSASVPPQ

Endothelin-1 receptor = target: T4, Endothelin-1 receptor (Homo sapiens, UniProt P25101)
T4 sequence (P25101 whole entry): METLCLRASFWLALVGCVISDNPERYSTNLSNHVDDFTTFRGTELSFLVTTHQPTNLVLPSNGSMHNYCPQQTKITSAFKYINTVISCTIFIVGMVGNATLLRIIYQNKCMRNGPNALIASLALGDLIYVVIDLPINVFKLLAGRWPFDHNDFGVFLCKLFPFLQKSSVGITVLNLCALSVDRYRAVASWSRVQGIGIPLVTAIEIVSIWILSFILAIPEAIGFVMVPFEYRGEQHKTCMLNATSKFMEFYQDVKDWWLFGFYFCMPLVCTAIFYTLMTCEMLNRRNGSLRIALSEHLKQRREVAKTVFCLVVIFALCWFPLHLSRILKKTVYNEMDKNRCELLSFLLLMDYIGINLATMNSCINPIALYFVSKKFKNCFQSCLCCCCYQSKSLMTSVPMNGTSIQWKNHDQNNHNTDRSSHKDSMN

[3] = target: Gamma-aminobutyric acid receptor subunit alpha-1 (Rattus norvegicus, UniProt P62813); type: functional
[4] = target: Growth hormone secretagogue receptor type 1 (Homo sapiens, UniProt Q92847)
[5] = target: Glutamate receptor ionotropic, NMDA 1 (Rattus norvegicus, UniProt P35439)
[6] = target: T5, Equilibrative nucleoside transporter 1 (Homo sapiens, UniProt Q99808)
T5 sequence (Q99808 whole entry): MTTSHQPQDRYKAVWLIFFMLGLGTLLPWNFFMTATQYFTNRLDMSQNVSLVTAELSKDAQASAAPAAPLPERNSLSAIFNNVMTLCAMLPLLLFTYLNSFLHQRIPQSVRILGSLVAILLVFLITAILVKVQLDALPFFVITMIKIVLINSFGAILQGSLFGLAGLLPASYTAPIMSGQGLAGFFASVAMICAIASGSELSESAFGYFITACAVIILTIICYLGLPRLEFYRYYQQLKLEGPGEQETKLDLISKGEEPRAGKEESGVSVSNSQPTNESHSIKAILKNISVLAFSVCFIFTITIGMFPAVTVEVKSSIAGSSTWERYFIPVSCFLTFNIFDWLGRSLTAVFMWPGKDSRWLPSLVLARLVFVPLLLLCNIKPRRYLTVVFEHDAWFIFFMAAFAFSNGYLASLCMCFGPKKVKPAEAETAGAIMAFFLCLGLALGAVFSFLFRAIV

Mu-type opioid receptor = Mu-type opioid receptor (Homo sapiens, UniProt P35372)
[7] = target: T6, Alpha-1A adrenergic receptor (Homo sapiens, UniProt P35348); type: functional, cell-based
T6 sequence (P35348 whole entry): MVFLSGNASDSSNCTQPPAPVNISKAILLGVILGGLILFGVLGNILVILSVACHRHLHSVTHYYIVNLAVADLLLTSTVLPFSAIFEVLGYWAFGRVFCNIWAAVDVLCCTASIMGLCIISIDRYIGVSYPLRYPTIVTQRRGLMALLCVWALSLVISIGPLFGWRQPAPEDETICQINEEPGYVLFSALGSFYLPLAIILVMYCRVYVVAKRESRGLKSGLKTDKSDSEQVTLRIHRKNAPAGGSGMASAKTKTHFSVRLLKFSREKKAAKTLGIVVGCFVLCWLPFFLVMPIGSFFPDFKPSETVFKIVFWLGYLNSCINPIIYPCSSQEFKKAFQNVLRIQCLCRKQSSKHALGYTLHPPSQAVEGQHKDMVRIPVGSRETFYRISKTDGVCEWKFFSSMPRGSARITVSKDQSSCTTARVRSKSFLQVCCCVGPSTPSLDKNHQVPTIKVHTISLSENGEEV

[8] = target: Sodium-dependent serotonin transporter (Homo sapiens, UniProt P31645)
Also: assay procedure not described here.

Mu-type opioid receptor, sequence (P35372 whole entry): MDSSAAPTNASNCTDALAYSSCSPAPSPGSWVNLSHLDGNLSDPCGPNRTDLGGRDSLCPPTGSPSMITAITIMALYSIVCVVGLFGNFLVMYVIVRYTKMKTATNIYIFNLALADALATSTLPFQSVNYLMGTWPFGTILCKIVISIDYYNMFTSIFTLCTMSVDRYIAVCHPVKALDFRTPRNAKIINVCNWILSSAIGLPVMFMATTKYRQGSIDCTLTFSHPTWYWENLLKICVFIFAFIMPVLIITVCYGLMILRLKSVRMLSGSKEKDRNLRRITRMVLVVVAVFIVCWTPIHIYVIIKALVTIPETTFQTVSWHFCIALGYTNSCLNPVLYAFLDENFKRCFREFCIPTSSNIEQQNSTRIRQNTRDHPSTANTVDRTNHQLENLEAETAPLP
Gamma-aminobutyric acid receptor subunit alpha-1, sequence (P62813 whole entry): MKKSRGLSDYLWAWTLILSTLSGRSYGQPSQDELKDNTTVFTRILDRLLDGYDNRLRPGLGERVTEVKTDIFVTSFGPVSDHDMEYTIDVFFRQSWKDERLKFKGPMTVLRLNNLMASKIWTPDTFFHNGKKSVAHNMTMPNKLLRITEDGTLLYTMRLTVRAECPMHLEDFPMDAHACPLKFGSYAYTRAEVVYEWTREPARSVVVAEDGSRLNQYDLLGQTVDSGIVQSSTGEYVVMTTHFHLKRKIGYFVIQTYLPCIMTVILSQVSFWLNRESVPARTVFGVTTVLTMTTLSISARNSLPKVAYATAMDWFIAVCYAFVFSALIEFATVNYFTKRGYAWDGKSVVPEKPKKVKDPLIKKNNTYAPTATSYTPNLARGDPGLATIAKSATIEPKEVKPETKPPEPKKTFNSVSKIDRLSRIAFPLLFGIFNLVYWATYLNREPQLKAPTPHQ
Growth hormone secretagogue receptor type 1, sequence (Q92847 whole entry): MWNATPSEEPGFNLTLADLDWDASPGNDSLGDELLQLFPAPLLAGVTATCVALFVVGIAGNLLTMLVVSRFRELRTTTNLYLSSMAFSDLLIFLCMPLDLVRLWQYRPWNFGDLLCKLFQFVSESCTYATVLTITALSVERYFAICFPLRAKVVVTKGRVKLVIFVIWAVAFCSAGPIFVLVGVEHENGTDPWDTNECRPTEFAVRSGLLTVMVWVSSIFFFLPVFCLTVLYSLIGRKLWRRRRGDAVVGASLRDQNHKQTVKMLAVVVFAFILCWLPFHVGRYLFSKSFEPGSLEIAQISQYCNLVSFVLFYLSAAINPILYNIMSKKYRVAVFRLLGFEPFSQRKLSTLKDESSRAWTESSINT
Sodium-dependent serotonin transporter, sequence (P31645 whole entry): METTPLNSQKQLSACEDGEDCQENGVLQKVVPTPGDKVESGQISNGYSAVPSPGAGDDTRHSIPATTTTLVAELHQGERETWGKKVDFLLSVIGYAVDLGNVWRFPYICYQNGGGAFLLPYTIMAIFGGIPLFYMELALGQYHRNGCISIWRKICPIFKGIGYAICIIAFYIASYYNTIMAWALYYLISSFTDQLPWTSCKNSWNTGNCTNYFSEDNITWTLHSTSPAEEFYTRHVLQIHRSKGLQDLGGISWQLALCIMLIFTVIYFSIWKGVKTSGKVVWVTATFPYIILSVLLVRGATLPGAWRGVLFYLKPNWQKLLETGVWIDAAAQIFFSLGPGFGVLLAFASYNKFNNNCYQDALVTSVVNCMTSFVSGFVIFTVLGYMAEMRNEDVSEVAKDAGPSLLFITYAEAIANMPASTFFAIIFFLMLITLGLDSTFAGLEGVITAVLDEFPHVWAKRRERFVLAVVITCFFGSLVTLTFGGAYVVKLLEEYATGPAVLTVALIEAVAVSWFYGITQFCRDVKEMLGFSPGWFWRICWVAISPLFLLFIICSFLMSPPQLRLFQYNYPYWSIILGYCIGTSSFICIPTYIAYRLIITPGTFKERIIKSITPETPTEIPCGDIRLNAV

Row | Structure (SMILES) | AC50 (Adenosine receptor A1) | AC50 [1] | AC50 [2] | AC50 (Endothelin-1 receptor) | AC50 [3] | AC50 [4] | AC50 [5] | AC50 [6] | AC50 (Mu-type opioid receptor) | AC50 [7] | AC50 [8]
1 | CC1(C)S[C@@H]2[C@H](NC(=O)[C@H](N)c3ccc(O)cc3)C(=O)N2[C@H]1C(=O)O [AMOXICILLIN] | > 30 µM | > 30 µM | > 30 µM | > 30 µM | > 30 µM | > 30 µM | > 30 µM | > 30 µM | > 10 µM | – | –
2 | CCc1oc2ccccc2c1C(=O)c1cc(Br)c(O)c(Br)c1 [BENZBROMARONE] | > 30 µM | 16 µM | > 30 µM | > 30 µM | > 30 µM | > 30 µM | > 10 µM | > 30 µM | 26 µM | – | –
3 | Clc1cccc(Cl)c1N=C1NCCN1 [CLONIDINE] | > 30 µM | > 30 µM | > 30 µM | > 30 µM | > 10 µM | > 30 µM | > 10 µM | > 30 µM | > 30 µM | – | –
4 | COC(=O)[C@H](c1ccccc1Cl)N1CCc2sccc2C1 [CLOPIDOGREL] | > 30 µM | > 30 µM | > 30 µM | > 30 µM | > 30 µM | > 30 µM | > 30 µM | > 30 µM | 13 µM | – | –
5 | CN1C[C@H](C(=O)N[C@]2(C)O[C@@]3(O)[C@@H]4CCCN4C(=O)[C@H](Cc4ccccc4)N3C2=O)C[C@@H]2c3cccc4[nH]cc(c34)C[C@H]21 [DIHYDROERGOTAMINE] | > 30 µM | – | > 30 µM | > 30 µM | > 10 µM | 4.39 µM | > 10 µM | > 30 µM | > 30 µM | – | –
6 | C#Cc1cccc(Nc2ncnc3cc(OCCOC)c(OCCOC)cc23)c1 [ERLOTINIB] | > 30 µM | > 30 µM | 9.1 µM | > 30 µM | > 30 µM | > 30 µM | – | 29 µM | 29 µM | > 30 µM | –
7 | Cc1cnc(NC(=O)C2=C(O)c3ccccc3S(=O)(=O)N2C)s1 [MELOXICAM] | > 30 µM | > 30 µM | > 30 µM | 13.4 µM | > 10 µM | > 30 µM | > 10 µM | > 30 µM | > 10 µM | – | –
8 | COc1ccnc(C[S+]([O-])c2nc3ccc(OC(F)F)cc3[nH]2)c1OC (stereo not given) [PANTOPRAZOLE] | > 30 µM | > 30 µM | > 30 µM | > 30 µM | > 10 µM | > 30 µM | > 10 µM | > 30 µM | > 30 µM | – | –
9 | CNC[C@H](O)c1cccc(O)c1 [PHENYLEPHRINE] | > 30 µM | > 30 µM | > 30 µM | > 30 µM | > 10 µM | > 30 µM | > 10 µM | > 30 µM | > 10 µM | – | > 30 µM
10 | O=C1NC(=O)C(c2ccccc2)(c2ccccc2)N1 [PHENYTOIN] | > 30 µM | > 30 µM | > 30 µM | > 30 µM | > 30 µM | > 30 µM | > 10 µM | > 30 µM | > 30 µM | – | –
11 | CC(C)C[C@H](CN)CC(=O)O [PREGABALIN] | > 30 µM | > 30 µM | > 30 µM | > 30 µM | > 30 µM | > 30 µM | > 30 µM | > 30 µM | > 30 µM | – | –
12 | CCCN(CCC)CCc1cccc2c1CC(=O)N2 [ROPINIROLE] | > 30 µM | > 30 µM | > 30 µM | > 30 µM | > 30 µM | > 30 µM | > 10 µM | > 30 µM | 9.67 µM | – | –
13 | CCCN(CCc1cccs1)[C@H]1CCc2c(O)cccc2C1 [ROTIGOTINE] | > 30 µM | > 30 µM | > 30 µM | > 30 µM | > 30 µM | 29 µM | – | 29 µM | 8.6 µM | – | –
14 | CC[C@H]1OC(=O)[C@H](C)[C@@H](O[C@H]2C[C@@](C)(OC)[C@@H](O)[C@H](C)O2)[C@H](C)[C@@H](O[C@@H]2O[C@H](C)C[C@H](N(C)C)[C@H]2O)[C@](C)(O)C[C@@H](C)/C(=N\OCOCCOC)[C@H](C)[C@@H](O)[C@]1(C)O [ROXITHROMYCIN] | > 30 µM | > 30 µM | > 30 µM | > 30 µM | > 30 µM | > 30 µM | – | > 30 µM | > 30 µM | – | –
15 | CC(C)N(CCCCOCC(=O)NS(C)(=O)=O)c1cnc(-c2ccccc2)c(-c2ccccc2)n1 [SELEXIPAG] | > 30 µM | – | > 30 µM | > 30 µM | > 30 µM | > 30 µM | > 30 µM | > 30 µM | > 30 µM | – | –
16 | CC(=O)S[C@@H]1CC2=CC(=O)CC[C@]2(C)[C@H]2CC[C@@]3(C)[C@@H](CC[C@@]34CCC(=O)O4)[C@H]12 [SPIRONOLACTONE] | > 30 µM | > 30 µM | > 30 µM | > 30 µM | > 10 µM | > 30 µM | > 10 µM | > 30 µM | > 30 µM | – | –
17 | CCCCNc1ccc(C(=O)OCCN(C)C)cc1 [TETRACAINE] | > 30 µM | > 30 µM | > 30 µM | > 30 µM | > 10 µM | > 30 µM | > 10 µM | > 30 µM | > 10 µM | > 30 µM | –
18 | Cn1c(=O)c2[nH]cnc2n(C)c1=O [THEOPHYLLINE] | – | > 30 µM | > 30 µM | > 30 µM | > 10 µM | > 30 µM | > 10 µM | > 30 µM | > 30 µM | > 30 µM | –
